According to patent publication US12173088B2, “Anti-microbial peptides” (priority 2018, dated 2024):
Converted amounts (≈) assume the structure as drawn. Like-named read-outs stand apart in the source and are kept apart here. Each block holds one compound with its values, some of them ahead of it. Peptide text beside a SMILES is read from it.

Legend:
A. baumannii B26-16 = assay: microbe, parasite or virus in culture; assay type: cell-based, Acinetobacter baumannii; settings: read-out: MIC A. baumannii B26-16
Procedure: (§1) The bacterial strains used include the Gram-positive bacteria methicillin-resistant Staphylococcus aureus USA300, Enterococcus faecium V286-17 (VRE), S. aureus M838-17 (MRSA) and Gram-negative bacteria E. coli E423-17, E416-7 (ampC), P. aeruginosa E411-17, PA01, K. pneumoniae E406-17, ATCC13883, and A. baumannii B26-16. Bacteria were cultivated in tryptic soy broth (TSB) from BD Bioscience.
(§2) The antibacterial activity of peptides was evaluated using a standard broth microdilution protocol with minor modifications (Mishra, et al. (2017) Acta Biomater., 49:316-328). In brief, logarithmic phase bacterial cultures (i.e., optical density at 600 nm≈0.5) were diluted to 0.001 OD and aliquoted 90 μL per well into a 96-well polystyrene microplate. Added 10 μL peptides per well with various concentrations, plates were incubated at 37° C., overnight. Post incubation the plates are read at 630 nm using a ChroMate® Microplate Reader (GMI). […] To study the influence of medium conditions on the antimicrobial activity of peptides against S. aureus USA300 at different pHs (6.8, 7.2, and 8.0), 150 mM sodium chloride (NaCl), 5-10% of human serum, mouse plasma, and peritoneal fluid were included into the assays.

[1] = tested on: Klebsiella pneumoniae clinical strains; assay: microbe, parasite or virus in culture; settings: Klebsiella pneumoniae
Procedure: as §2

E. faecium V286-17 (VRE) = assay: microbe, parasite or virus in culture; assay type: cell-based, Enterococcus faecium; settings: read-out: MIC E. faecium V286-17 (VRE)
Description: (§3) The bacterial strains used include the Gram-positive strains Staphylococcus aureus USA300 LAC, S. epidermidis 1457, and Bacillus subtilis 168, as well as the Gram-negative isolates Escherichia coli K12 and Acinetobacter baumannii B2367-12. Additional, drug resistance strains include Gram-positive Enterococcus faecium V286-17 (VRE) and S. aureus M838-17 (MRSA) and Gram-negative E. coli E423-17, E. coli E416-17 (ampC), and P. aeruginosa E411-17. Bacteria were cultivated in tryptic soy broth (TSB) (BD Bioscience, MD).
(§4) The antibacterial activity of peptides was evaluated using a standard broth microdilution protocol with minor modifications as described (Mishra, et al. (2012) J. Am. Chem. Soc., 134:12426-12429). In brief, logarithmic phase bacterial cultures (i.e., optical density at 600 nm≈0.5) were diluted to OD600 0.001 and partitioned into a 96-well polystyrene microplate at 90 μL per well. After treatment with 10 μL of peptide solutions two fold diluted to various concentrations, microplates were incubated at 37° C. overnight and read on a ChroMate® 4300 Microplate Reader at 630 nm (GMI, Ramsey, MN). […] To study the influence of medium conditions on the antimicrobial activity of peptides against S. aureus USA300, up to 200 mM sodium chloride (NaCl), 2 mM of calcium chloride, 5-10% of human serum, mouse plasma, fluid, or supernatants of tissue homogenates were included into the assays.
as §1, §2

K. pneumoniae E406-17 = assay: microbe, parasite or virus in culture; assay type: cell-based, Klebsiella pneumoniae; settings: for MIC: read-out: MIC K. pneumoniae E406-17
Procedure: as §4, §1, §2

S. aureus USA300 = assay: microbe, parasite or virus in culture; assay type: cell-based, Staphylococcus aureus; settings: for MIC: read-out: MIC S. aureus USA300 (MRSA)
In short: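 Broth microdilution: log-phase cultures in tryptic soy broth diluted to OD600 0.001, exposed to two-fold diluted peptides at 37° C overnight, growth read at 630 nm. Medium effects on S. aureus USA300 tested with up to 200 mM NaCl, 2 mM CaCl2, 5-10% human serum, mouse plasma, fluids or tissue homogenate supernatants.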

E. coli E423-17 = assay: microbe, parasite or virus in culture; assay type: cell-based, Escherichia coli; settings: read-out: MIC E. coli E423-17
Description: as §3, §4, §1, §2

P. aeruginosa E411-17 = assay: microbe, parasite or virus in culture; assay type: cell-based, Pseudomonas aeruginosa; settings: for MIC: read-out: MIC P. aeruginosa E411-17
Description: as §3, §4, §1, §2

S. aureus M838-17 (MRSA) = assay: microbe, parasite or virus in culture; assay type: cell-based, Staphylococcus aureus; settings: M838-17
In short: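 Peptides were serially diluted two-fold against bacteria grown in tryptic soy broth to log phase (OD600 ≈0.5), then seeded at OD600 0.001. Plates were held overnight at 37° C and read at 630 nm. USA300 was also tested at pH 6.8, 7.2 and 8.0, with 150 mM NaCl or 5-10% serum, plasma or peritoneal fluid.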

Hemolytic assay = assay type: cell-based, human; settings: human, human red blood cells, 2% (v/v)
In short: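 HL50 marks the peptide level lysing half of a 2% (v/v) suspension of washed human erythrocytes after 1 h at 37 °C. Released hemoglobin measured at 545 nm, scaled between PBS (0%) and Triton X-100 (2% or 1%; 100%). Selectivity index computed as HL50 over MIC.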

K. pneumoniae ATCC 13883 = assay type: cell-based, Klebsiella pneumoniae; settings: ATCC 13883
In short: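 Broth microdilution in tryptic soy broth: log-phase cultures (OD600 ≈0.5) diluted to OD600 0.001, given two-fold peptide dilutions, incubated overnight at 37° C. Growth read at 630 nm.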

E. coli ATCC 25922 = assay type: cell-based, Escherichia coli; settings: ATCC 25922
In short: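 Peptides, serially diluted two-fold, were incubated overnight at 37 °C with E. coli ATCC 25922 from log-phase cultures adjusted to OD600 0.001. Turbidity at 630 nm served as the read-out in this broth microdilution format.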

- MIC (A. baumannii B26-16; Acinetobacter baumannii, B2616, Table 14): 4 µM (≈ 1.87 µg/mL)
- MIC ([1]; strain KP-231-18): 64 µM (≈ 29.9 µg/mL)
- MIC ([1]; strain KP-232-18): > 64 µM
- MIC ([1]; strain KP-245-18): 4 to 8 µM (≈ 1.87 to 3.74 µg/mL)
- MIC ([1]; strain KP-249-18): 8 µM (≈ 3.74 µg/mL)
- MIC ([1]; strain KP-253-18): 8 µM (≈ 3.74 µg/mL)
- MIC ([1]; strain KP-256-18): > 64 µM
- MIC ([1]; strain KP-257-18): > 64 µM
- MIC ([1]; strain KP-262-18): 4 µM (≈ 1.87 µg/mL)
- MIC ([1]; strain KP-270-18): 16 µM (≈ 7.48 µg/mL)
- MIC ([1]; strain KP-B42-15): 8 µM (≈ 3.74 µg/mL)
- MIC ([1]; strain KP-B53-15): 4 µM (≈ 1.87 µg/mL)
- MIC ([1]; strain KP-B73-15): 4 µM (≈ 1.87 µg/mL)
- MIC ([1]; strain KP-B77-15): 4 µM (≈ 1.87 µg/mL)
- MIC ([1]; strain KP-B1725-18): 8 µM (≈ 3.74 µg/mL)
- MIC (E. faecium V286-17 (VRE); Enterococcus faecium, VRE, Table 14): > 8 µM
- MIC (K. pneumoniae E406-17; Klebsiella pneumoniae, E40617, Table 14): > 8 µM
- MIC (S. aureus USA300; Staphylococcus aureus, MRSA / USA300, Table 14): 4 µM (≈ 1.87 µg/mL)
- MIC (E. coli E423-17; Escherichia coli, E42317, Table 14): 8 µM (≈ 3.74 µg/mL)
- MIC (P. aeruginosa E411-17; Pseudomonas aeruginosa, E41117, Table 14): 2 µM (≈ 0.935 µg/mL)
Compound: NC[C@H]1O[C@H](O[C@H]2[C@H](O)[C@@H](O[C@H]3O[C@H](CO)[C@@H](O)[C@H](N)[C@H]3O)[C@H](N)C[C@@H]2N)[C@H](N)C[C@@H]1O [Tobramycin, reference compound]

Compound: Colistin [reference compound]
- MIC (A. baumannii B26-16; Table 14): 1 µM
- MIC (E. faecium V286-17 (VRE); Table 14): >8 µM
- MIC (K. pneumoniae E406-17; Table 14): >8 µM
- MIC (S. aureus USA300; Table 14): >8 µM
- MIC (E. coli E423-17; Table 14): 1 µM
- MIC (P. aeruginosa E411-17; Table 14): 2 µM

- MIC K. pneumonia 406-17 (K. pneumoniae E406-17; E406-17): >50 µM
- MIC S. aureus M838-17 (S. aureus M838-17 (MRSA)): 12.5 µM (≈ 16.3 µg/mL)
- MIC P. aeruginosa 411-17 (P. aeruginosa E411-17; E411-17): 25 µM (≈ 32.5 µg/mL)
Compound: C[C@H](NC(=O)[C@H](Cc1c[nH]c2ccccc12)NC(=O)[C@H](Cc1c[nH]c2ccccc12)NC(=O)[C@H](Cc1c[nH]c2ccccc12)NC(=O)[C@H](Cc1c[nH]c2ccccc12)NC(=O)[C@H](CCCNC(=N)N)NC(=O)[C@H](CCCNC(=N)N)NC(=O)[C@@H](N)CCCNC(=N)N)C(N)=O [WW308, RRRWWWWA] (H-RRRWWWWA-NH2; N-terminus and C-terminus assumed)
- HC50 at 1 h (Hemolytic assay): > 200 µM

- MIC (A. baumannii B26-16; B26-16): 8 µM (≈ 10.2 µg/mL)
- MIC (E. faecium V286-17 (VRE); V286-17 (VRE)): 4 µM (≈ 5.09 µg/mL)
- MIC K. pneumonia 406-17 (K. pneumoniae E406-17; E406-17): 12.5 µM (≈ 15.9 µg/mL)
- MIC (K. pneumoniae E406-17; E406-17): 16 µM (≈ 20.4 µg/mL)
- MIC K. pneumoniae ATCC 13883 (K. pneumoniae ATCC 13883): 3.1 to 6.2 µM
- MIC S. aureus M838-17 (S. aureus M838-17 (MRSA)): 6.2 to 12.5 µM
- MIC S. aureus USA 300 (S. aureus USA300; USA300): 3.1 to 6.2 µM
- MIC (S. aureus USA300; USA300): 4 µM (≈ 5.09 µg/mL)
- MIC (E. coli E423-17; E423-17): 8 µM (≈ 10.2 µg/mL)
- MIC E. coli ATCC 25922 (E. coli ATCC 25922): 6.2 µM (≈ 7.89 µg/mL)
- MIC P. aeruginosa 411-17 (P. aeruginosa E411-17; E411-17): >50 µM
- MIC (P. aeruginosa E411-17; E411-17): 32 µM (≈ 40.7 µg/mL)
Compound: CC[C@H](C)[C@H](NC(=O)[C@H](CCCCN)NC(=O)[C@@H](N)CCCNC(=N)N)C(=O)N[C@@H](Cc1c[nH]c2ccccc12)C(=O)N[C@@H](Cc1c[nH]c2ccccc12)C(=O)N[C@@H](Cc1c[nH]c2ccccc12)C(=O)N[C@@H](Cc1c[nH]c2ccccc12)C(=O)N[C@@H](CC(C)C)C(N)=O [WW295, RKIWWWWL] (H-RKIWWWWL-NH2; N-terminus and C-terminus assumed)
- HC50 at 1 h (Hemolytic assay): 57 µM
